Source: ChEMBL document CHEMBL3886705, “Cyanomethylpyrazole carboxamides as janus kinase inhibitors” (2016)
Where “and” joins values, the source holds several entries; their conditions need not be identical. Equal entries are not always repeated.

Assays:
[1] = molecular target: Tyrosine-protein kinase JAK2 (Homo sapiens, UniProt O60674)
[2] = molecular target: Tyrosine-protein kinase JAK1 (Homo sapiens, UniProt P23458); experiment: Subsequent reagent additions employed an Agilent Bravo.
Sequence of Tyrosine-protein kinase JAK1 (P23458 whole entry): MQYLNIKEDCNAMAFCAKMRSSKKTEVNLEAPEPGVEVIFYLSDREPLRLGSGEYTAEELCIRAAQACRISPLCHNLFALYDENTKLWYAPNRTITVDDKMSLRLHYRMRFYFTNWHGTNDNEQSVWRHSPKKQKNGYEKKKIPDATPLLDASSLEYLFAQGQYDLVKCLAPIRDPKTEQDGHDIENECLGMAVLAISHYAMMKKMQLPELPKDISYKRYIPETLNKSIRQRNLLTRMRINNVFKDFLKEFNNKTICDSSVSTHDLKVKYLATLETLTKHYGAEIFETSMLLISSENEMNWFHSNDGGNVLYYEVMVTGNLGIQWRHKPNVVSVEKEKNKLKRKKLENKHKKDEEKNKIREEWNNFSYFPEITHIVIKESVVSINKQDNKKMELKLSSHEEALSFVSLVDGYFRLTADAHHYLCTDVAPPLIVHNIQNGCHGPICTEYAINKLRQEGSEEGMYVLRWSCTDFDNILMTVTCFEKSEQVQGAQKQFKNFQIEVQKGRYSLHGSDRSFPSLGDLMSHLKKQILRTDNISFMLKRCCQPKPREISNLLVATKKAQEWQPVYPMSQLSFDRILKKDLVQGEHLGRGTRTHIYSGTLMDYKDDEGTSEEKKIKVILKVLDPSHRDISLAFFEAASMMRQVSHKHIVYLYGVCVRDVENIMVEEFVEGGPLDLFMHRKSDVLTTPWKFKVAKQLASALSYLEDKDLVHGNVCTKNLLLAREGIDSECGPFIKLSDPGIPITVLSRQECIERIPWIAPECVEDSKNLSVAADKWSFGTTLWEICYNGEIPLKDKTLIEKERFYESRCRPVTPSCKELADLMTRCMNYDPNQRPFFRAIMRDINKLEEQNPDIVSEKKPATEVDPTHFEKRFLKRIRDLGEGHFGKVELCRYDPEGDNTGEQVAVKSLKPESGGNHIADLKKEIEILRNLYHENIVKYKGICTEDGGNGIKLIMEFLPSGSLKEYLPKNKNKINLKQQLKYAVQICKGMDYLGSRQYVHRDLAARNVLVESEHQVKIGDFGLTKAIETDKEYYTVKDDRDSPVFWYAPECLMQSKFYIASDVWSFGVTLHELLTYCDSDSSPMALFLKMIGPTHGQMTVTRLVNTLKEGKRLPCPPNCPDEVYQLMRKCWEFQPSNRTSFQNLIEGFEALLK

Sequence of Tyrosine-protein kinase JAK2 (O60674 whole entry): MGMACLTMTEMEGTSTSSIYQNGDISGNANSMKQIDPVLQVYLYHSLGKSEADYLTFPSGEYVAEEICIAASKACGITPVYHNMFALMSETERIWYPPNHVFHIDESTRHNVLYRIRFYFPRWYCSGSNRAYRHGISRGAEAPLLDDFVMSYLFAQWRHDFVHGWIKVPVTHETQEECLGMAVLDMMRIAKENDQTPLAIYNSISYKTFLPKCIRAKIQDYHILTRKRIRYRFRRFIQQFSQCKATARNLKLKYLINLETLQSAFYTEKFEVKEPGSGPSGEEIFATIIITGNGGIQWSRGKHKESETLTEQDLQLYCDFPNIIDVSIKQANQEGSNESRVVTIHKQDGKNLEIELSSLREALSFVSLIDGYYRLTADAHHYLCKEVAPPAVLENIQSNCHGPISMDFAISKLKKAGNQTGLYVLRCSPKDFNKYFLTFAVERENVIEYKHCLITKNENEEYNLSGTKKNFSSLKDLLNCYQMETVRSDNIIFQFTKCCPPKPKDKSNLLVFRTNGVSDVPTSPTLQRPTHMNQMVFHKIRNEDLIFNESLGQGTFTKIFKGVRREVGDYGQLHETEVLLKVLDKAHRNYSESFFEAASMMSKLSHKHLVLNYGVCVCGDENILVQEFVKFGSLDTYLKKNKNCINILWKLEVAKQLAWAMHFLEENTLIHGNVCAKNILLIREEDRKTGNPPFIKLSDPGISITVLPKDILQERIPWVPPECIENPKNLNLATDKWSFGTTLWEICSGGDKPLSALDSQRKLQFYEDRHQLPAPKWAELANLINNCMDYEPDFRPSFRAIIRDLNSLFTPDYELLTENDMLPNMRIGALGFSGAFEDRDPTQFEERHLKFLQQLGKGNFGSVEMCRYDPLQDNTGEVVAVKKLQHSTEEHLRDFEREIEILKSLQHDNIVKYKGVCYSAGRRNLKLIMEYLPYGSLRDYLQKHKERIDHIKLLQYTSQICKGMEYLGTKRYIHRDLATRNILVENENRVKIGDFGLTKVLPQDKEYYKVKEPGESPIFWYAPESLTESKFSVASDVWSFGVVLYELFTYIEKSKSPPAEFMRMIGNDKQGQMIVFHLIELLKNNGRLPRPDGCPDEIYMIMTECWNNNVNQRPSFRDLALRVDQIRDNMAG

IC50 [1]	IC50 [2]	SMILES
33 nM	1 nM	CC(C)(C)OC(=O)N1CCC(CC#N)(n2cc(C(N)=O)c(Nc3cc(Cl)nc(Cl)c3)n2)CC1
> 1500 nM and 161 nM	–	N#CCC1(n2cc(C(N)=O)c(Nc3ccnc(F)c3)n2)CCC(N)CC1 (stereo not given)
2 nM	0.7 nM	CN(C)C(=O)c1ccc(Nc2nn(C3(CC#N)CCN(C(=O)OC(C)(C)C)CC3)cc2C(N)=O)cc1
